Where two headings read alike, the source gives them in different places.
Assays:
[1] = Integrated plasma activity for the 30-minute period after tracer injection; type: in vivo, human; details: 30-minute period after injection
Text: Integrated plasma activity
for the 30-minute time period after injection is also presented.

monoamine oxidase = assay: PET in baboons, double injection with intervening high dose of unlabeled compound; type: in vivo; details: baboon pretreated with L-deprenyl, some brain regions
MAO A = target: T1, MAO A (Mus musculus, UniProt Q64133); details: for Effect of cross pretreatment on tracer distribution: mice pretreated with unlabeled L-deprenyl 10 mg/kg i.p. one hour before tracer
T1 sequence (Q64133 1-526): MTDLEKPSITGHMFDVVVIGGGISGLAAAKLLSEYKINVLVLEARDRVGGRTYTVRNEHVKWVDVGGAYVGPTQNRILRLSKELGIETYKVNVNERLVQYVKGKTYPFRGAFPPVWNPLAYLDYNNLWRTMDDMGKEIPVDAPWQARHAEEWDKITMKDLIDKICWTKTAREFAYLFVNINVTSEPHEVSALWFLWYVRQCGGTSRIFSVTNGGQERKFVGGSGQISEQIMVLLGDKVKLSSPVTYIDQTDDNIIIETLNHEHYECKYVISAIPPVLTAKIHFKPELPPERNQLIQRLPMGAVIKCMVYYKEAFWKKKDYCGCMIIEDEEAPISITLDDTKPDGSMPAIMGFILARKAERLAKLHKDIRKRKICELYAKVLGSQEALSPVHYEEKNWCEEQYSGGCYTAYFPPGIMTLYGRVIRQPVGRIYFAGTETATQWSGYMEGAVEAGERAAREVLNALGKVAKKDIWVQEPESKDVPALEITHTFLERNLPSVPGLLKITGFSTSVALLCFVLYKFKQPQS
Experimental: Organs were rapidly removed, blotted free of blood, placed in preweighed counting vials, and counted, along with injection standards, in a sodium iodide well counter.
For the determination of protein binding, freshly excised brains were minced in preweighed centrifuge tubes containing 2 ml 0.4% HClO4 […], weighed, counted, diluted with 1 ml HClO4 and 1 ml methanol, and homogenized by ultrasonication. After centrifugation and decantation, the pellets were resuspended in 3 ml methanol, sonicated, and recentrifuged. The combined supernatants and pellet were counted in a sodium iodide well counter. […] Because of the short half-life of C-11, corrections for the decay of the isotope were calculated to a standard time (end of cyclotron bombardment) for all data.
For pretreatment experiments, mice were given intraperitoneal injections of unlabeled clorgyline or L-deprenyl (10 mg/kg) one hour before the administration of the [^11 C]-tracer.

[2] = study 5, subject receiving phenelzine plus amphetamine

C#CCN([11CH3])[C@H](C)Cc1ccccc1 [[^11 C]-L-deprenyl] showed an Integrated plasma activity ([1]; study 1, normal volunteer) of 1818 nCi ml min, an Integrated plasma activity ([1]; study 2, normal volunteer) of 2295 nCi ml min and an Integrated plasma activity ([1]; study 3, normal volunteer) of 1018 nCi ml min. The Integrated plasma activity ([1]; study 4, normal volunteer) was 1618 nCi ml min, the Integrated plasma activity [1, 2] was 2776 nCi ml min and the “Reduction of brain radioactivity due to tracer after pretreatment” value (monoamine oxidase) was no more than 80%.
Work on C#CCN([11CH3])CCCOc1ccc(Cl)cc1Cl [[^11 C]clorgyline] yielded an Integrated plasma activity ([1]; study 1, normal volunteer) of 2329 nCi ml min, an Integrated plasma activity ([1]; study 2, normal volunteer) of 3206 nCi ml min and an Integrated plasma activity ([1]; study 3, normal volunteer) of 3260 nCi ml min. For the same compound, the Integrated plasma activity ([1]; study 4, normal volunteer) was 3611 nCi ml min, the Integrated plasma activity [1, 2] was 3965 nCi ml min and the “Effect of cross pretreatment on tracer distribution” value (MAO A) was “did not significantly alter from control”. The “Effect of cross pretreatment on tracer distribution” value (MAO A; listed as [^11 C]Clorgyline) was “no effect” and the “Brain uptake compared with the other tracer” value (MAO A; mouse brain, control and pretreated mice) was “slight but consistently higher uptake than L-deprenyl”.

— US4913891A, “Positron emitter labeled enzyme inhibitors” (The United States of America as represented by the United …, priority 1987, dated 1990)
